Measured values published in patent US9487561B2, “Biologically active complex and its preparation” (HAMLET PHARMA AB, priority 2010, dated 2016).

B1: HAMLET (protein, UniProt P00709 20-142, looked up)
Alpha-lactalbumin: KQFTKCELSQLLKDIDGYGGIALPELICTMFHTSGYDTQAIVENNESTEYGLFQISNKLWCKSSQVPQSRNICDISCDKFLDDDITDDIMCAKKILDIKGIDYWLAHKALCTEKLEQWLCEKL
modifications: oleic acid complex

How the values were obtained:
[1] = test system: (HeLa cells); experiment: cell death assay with ion channel inhibitors; format: cell-based; conditions: HAMLET 21-35 μM, three hours
Description: (§1) Cells were detached from cell culture flasks with versen (0.2 g EDTA in 200 ml H2O and 800 ml PBS), washed with PBS and resuspended in serum-free RPMI-1640. HAMLET dissolved in PBS was incubated with cells (0.5×10^6/ml for A549, A498 and HeLa cells; 1×10^6/ml for Jurkat) at 37° C. FCS was added after 1 hour. Cell death was quantified by trypan blue exclusion (Chroma Gesellschaft Schmid & Co) or by measuring ATP levels (ATPlite Kit, PerkinElmer, Infinite 200, Tecan). Light images were captured using the HOLOMONITOR™ M2 digital holographic microscope (Phase Holographic Imaging AB, Lund, Sweden).
For studies with inhibitors, cells were pretreated for 30 minutes. Inhibitors used were Gadolinium chloride (GdCl3, 100 μM), Barium chloride (BaCl2, 1 mM), Ruthenium red (30 μM), tetrandrine (10 μM) and amiloride (1 mM), all from Sigma Aldrich. For p38 inhibition, SB202190 (20 μM, Sigma Aldrich) or BIRB796 (10 μM, Axon Medchem) dissolved in DMSO was used. The wells were washed twice with PBS and new medium with inhibitor was added. For RNA interference, FlexiTube siRNA Premixes against MAPK11 (SI00606053), MAPK14 (SI00300769) and All Star Negative Control siRNA (SI03650318) from Qiagen was used. A549 forward was transfected using 25 nM final siRNA concentration in 24-well plate. […]

[2] = test system: lymphoma cells (Jurkat cells); experiment: cell death assay with inhibitors; format: cell-based; conditions: HAMLET 21-35 μM, three hours
Description: GAPDH was used as a loading control.
as §1
For studies with inhibitors, cells were pretreated for 30 minutes. Inhibitors used were Gadolinium chloride (GdCl3, 100 μM), Barium chloride (BaCl2, 1 mM), Ruthenium red (30 μM), tetrandrine (10 μM) and amiloride (1 mM), all from Sigma Aldrich. For p38 inhibition, SB202190 (20 μM, Sigma Aldrich) or BIRB796 (10 μM, Axon Medchem) dissolved in DMSO was used. The wells were washed twice with PBS and new medium with inhibitor was added. For RNA interference, FlexiTube siRNA Premixes against MAPK11 (SI00606053), MAPK14 (SI00300769) and All Star Negative Control siRNA (SI03650318) from Qiagen was used. A549 forward was transfected using 25 nM final siRNA concentration in 24-well plate. After 48 hours, knockdown was examined by Western blot (anti-p38, 1:1000, Cell Signaling) and RT-PCR (MAPK14, QT00079345, QIAGEN).
To examine if functional ion channels are important for the tumoricidal activity of HAMLET, A549 lung carcinoma cells in suspension were pretreated with the channel inhibitors for 30 minutes and exposed to increasing concentrations of HAMLET for three hours.

[3] = test system: lung carcinoma, kidney carcinoma and lymphoma cells; experiment: HAMLET-induced change in cell morphology (light microscopy, real-time imaging); format: cell-based; conditions: light microscopy
Description: as §1
(§2) For live cell imaging, cells were pre-treated with SB202190 for 30 minutes, nuclei were stained with Hoechst 33342 (Invitrogen) and Alexa-Fluor 568-labeled HAMLET (10% labeled HAMLET, Molecular Probes) was added in serum-free medium. FCS was added after 1 hour. Fluorescence was detected with pinhole settings corresponding to 1 airy unit. The cells were kept at 37° C., 5% CO2 and examined unfixed by LSM510 DUO confocal microscopy (Carl Zeiss).
To examine if the HAMLET-induced change in carcinoma cell morphology was modified by the channel inhibitors, lung carcinoma, kidney carcinoma and lymphoma cells were exposed to HAMLET in the presence or absence of ion channel inhibitors and examined by light microscopy (FIG. 2C).
To determine if p38 signaling was involved in cell death, we inhibited p38α and p38β in lung and kidney carcinoma and Jurkat lymphoma cells with two small-molecule p38 inhibitors: SB202190, a highly specific pyridinyl-imidazole inhibitor; and BIRB796, a diaryl urea compound, which bears little structural similarity to SB202190 (Fabian et al., 2005, Nature Biotechnology 23: 329-336), ([…] and FIG. 12B). […] The effect of p38 inhibition on cell death was also observed by real-time confocal imaging of lung carcinoma cells exposed to fluorescently labeled HAMLET.

[4] = test system: tumor cells; experiment: internalization of Alexa-fluor labeled HAMLET (confocal microscopy); format: cell-based; conditions: HAMLET 35 μM, 1 hour
Description: FIG. 2. Ion channel inhibitors rescue carcinoma cells from death and block HAMLET uptake and morphologic change. (A) Viability of lung carcinoma cells after exposure to HAMLET (21 or 35 μM, 3 h), quantified by trypan blue exclusion. […] (B) BaCl2 and amiloride prevented carcinoma cells from changing their morphology in response to HAMLET (Mean of two images in one experiment+SEMs). (C) Internalization of Alexa-fluor labeled HAMLET by tumor cells (35 μM, 1 hour), visualized by confocal microscopy. […] GAPDH was the loading control. (E) The transcriptomic response to HAMLET requires functional ion channels.
as §2

[5] = test system: A549 lung carcinoma cells; experiment: global transcriptional response, whole genome arrays (Affymetrix); format: cell-based, human
Description: For the microarray analysis with ion channel inhibitors, 200,000 A549 cells/well were allowed to adhere overnight on a 6-well plate. After 1 hour of HAMLET treatment, the cells were lysed and RNA was extracted using the RNeasy Mini Kit (QIAGEN). The samples were sent to AROS Applied Biotechnology (Århus, Denmark) for analysis. Data was preprocessed using RMA implemented in the free software packages “affy” as provided by R and Bioconductor (<www.r-project.org>). Differentially expressed genes were identified using empirically Bayes adjusted t-statistics and characterized using the Functional Annotation Clustering Tool in the Database for Annotation, Visualization and Integrated Discovery (DAVID), (Dennis et al., 2003 Genome Biology 4(5): P3) and Ingenuity Pathway Analysis (Ingenuity Systems). All microarray data were registered into NCBI's Gene Expression Omnibus (GEO) database (<www.ncbi.nlm.nih.gov/projects/geo>) with accession numbers GSE23772.
To understand the mechanisms of carcinoma cell death and the contribution of ion channel activation, the global transcriptional response to HAMLET was examined, using whole genome arrays. A549 lung carcinoma cells were exposed to HAMLET (21 μM) for one hour and cells pretreated with amiloride were compared to cells in medium alone. […] An unbiased global overview of transcription was obtained by performing a hierarchical clustering of the top 3000 genes by variance and was visualized in a heatmap (FIG. 2D and FIG. 13). Genes with empirical Bayes adjusted p-values <0.05 and log 2 fold changes >1 were considered differentially expressed and were functionally characterized using Database for Annotation, Visualization and Integrated Discovery, (Dennis et al., supra, 2003) and Ingenuity Pathway Analysis.
In total 12 RNA samples were generated (triplicate of control, oleic Acid, HAMLET, and oleate-treated) and hybridized to Affymetrix Whole Genome microarrays U219. […] For statistical analysis normalized data were linear model fitted and Empirical Bayesian analysis, coupled with p-value adjustment, performed.

[6] = test system: Jurkat cells; experiment: sodium influx, CoroNa Green Sodium indicator; format: cell-based; conditions: 10-minute measurement period
Description: Sodium influx in Jurkat cells was measured by using CoroNa Green Sodium indicator. The fluorescence was quantified every 20-second interval for a 10-minute total measurement period.

[7] = test system: tumor cells; experiment: Tumoricidal Activity of Oleate-HAMLET (cell death method of Example 1); format: cell-based; conditions: 0.5 mg/ml
[8] = Example 5, Affymetrix U219, adjusted p-value <0.05 and log 2-foldchange of 1

| Molecule | rescue from HAMLET-induced cell death [1] | rescue from HAMLET-induced cell death [2] | effect of ion channel inhibitor on HAMLET-induced change in cell morphology [3] | effect of inhibitor on internalization of HAMLET [4] | effect of inhibitor alone on transcription [5] | number of differentially expressed genes in response to HAMLET in cells pretreated with inhibitor ([5]; HAMLET 21 μM, one hour) | sodium influx (fluorescence signal) [6] | number of differentially expressed genes [5, 8] | global transcriptional response (heatmap, top 3000 genes by variance) ([5]; FIG. 7B) | number of differentially expressed genes ([5]; HAMLET 21 μM, one hour, no inhibitor, adjusted p-values <0.05, log 2 fold changes >1) | Trypan blue ([7]; Control 88) | ATP Activity ([7]; Control 100) |
| --- | --- | --- | --- | --- | --- | --- | --- | --- | --- | --- | --- | --- |
| [Ba+2].[Cl-].[Cl-] [BaCl2, barium chloride] | rescue effect | rescue effect | maintained their normal morphology | inhibited internalization |  |  |  |  |  |  |  |  |
| NC(N)=NC(=O)c1nc(Cl)c(N)nc1N [amiloride, 3,5-diamino-6-chloro-N-(diaminomethylene)pyrazine-2-carboxamide] | rescue effect | rescue effect | maintained their normal morphology | inhibited internalization | no significant effect on transcription | 52 genes |  |  |  |  |  |  |
| CCCCCCCC/C=C\CCCCCCCC(=O)[O-].[Na+] [oleate, sodium oleate] |  |  |  |  |  |  | did not trigger a sodium flux | 426 genes | very similar transcriptional response |  |  |  |
| B1 |  |  |  |  |  |  | immediate increase of fluorescence signal | 336 genes |  | 336 genes | 8 | 21% |
